From ChEMBL document CHEMBL1146745, “Studies on anti-Helicobacter pylori agents. Part 3: A novel, efficacious cephem derivative, FR193879” (Bioorg Med Chem Lett, 2004)

What was measured:
[1] = target: Beta-lactamase TEM (Escherichia coli) (UniProt P62593); assay: Relative stability towards penicillinase was determined
[2] = target: Beta-lactamase TEM (Escherichia coli) (UniProt P62593); assay: Stability towards penicillinase was determined
[3] = target: Beta-lactamase TEM (Escherichia coli) (UniProt P62593); assay: Stability towards beta-lactamase was determined in penicillinase

NC(=O)Cc1csc(SC2=C(C(=O)O)N3C(=O)[C@@H](NC(=O)Cc4ccccc4)[C@H]3SC2)n1
Ratio [1]: 9.38 | Km [2]: 34.8 µg/mL | Vmax [3]: 1.18
